The experiment concerns HCV replicon-containing cells (Huh7/Clone A). Put plainly: HCV Replicon Assay. It is filed as cell-based. The settings on record: Hepatitis C virus, Huh-7, 48 hours incubation, HCV replicon RNA by RT-qPCR normalized to total RNA, read-out: IC50 of inhibition of HCV replication. From the text:
The HCV replicon assay is a cell-culture system that mimics in vivo HCV replication and provides a system to study HCV replication in vitro. It was created by transfecting cloned viral RNA derived from a consensus HCV genomic sequence into human Huh7 hepatoma cells that are semi-permissive for viral RNA production (Lohmann V., Korner F., Koch J.-O., Herian U., Theilmann L. and Bartenschlager R. (1999). Replication of subgenomic Hepatitis C virus RNAs in a hepatoma cell line. Science 285, 110-113 and Blight K. J., Kolykhalov A. A. and Rice C. M. (2000). Efficient initiation of HCV RNA Replication in cell culture. Science 290, 972-1974). […] Replicon-containing cells autonomously and persistently replicate HCV RNA that can be measured quantitatively by real-time qPCR. Therefore, the replicon system facilitates quantitative assessment of anti-viral activity by monitoring changes in HCV RNA replication in a cell-based assay. […]
Total RNA eluted in 130 μl of RNase-freed H2O was quantitated by the RiboGreen Assay according to the supplier's protocol (Molecular Probe). […] RNA samples in the black microplate were mixed with 95 μl of diluted RiboGreen reagent (1:250 dilution in TE buffer) and sample fluorescence was measured using a fluorescence microplate reader at standard fluorescein wavelengths (excitation ˜480 nm, emission ˜520 nm). […]
Background: A replicon is a self-replicating genome or part of one, used to study replication in cells.

Broadly, the IC50 is the midpoint of a concentration-inhibition curve.

For the compound `O=C(OCc1ccc(Cl)cc1)c1cn(Cc2ccc(Cl)cc2)c2cc(N3CCNCC3)c(F)cc2c1=O` [Compound 1, 1-(4-chlorobenzyl)-6-fluoro-4-oxo-7-piperazin-1-yl-1,4-dihydro-quinoline-3-carboxylic acid 4-chlorobenzyl ester], the half-maximal inhibitory concentration (IC50) is below 5 µM.

(Values after patent US20070032522A1, “Antiviral agents” (priority 2005, published 2007).)
